Data as given in patent US20100267561A1, “HERBICIDAL PYRIDAZINONE DERIVATIVES” (priority 2007, published 2010).

Experiments:
Format in all cases: in vivo
[1] = tested on: barnyardgrass (Echinochloa crus-galli); assay: Test A pre-/postemergence plant response
Method in brief: (§1)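 Ratings run 0–100 (100 = complete control), assigned visually against untreated controls roughly 10 days after treatment in a greenhouse. Compounds, formulated in non-phytotoxic solvent containing surfactant, were applied as a soil-directed preemergence spray and concurrently postemergence to one- to two-leaf plants 2–10 cm tall.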

corn (Zea mays) = assay: Test A pre-/postemergence plant response
Method in brief: as §1

[2] = tested on: giant foxtail (Setaria faberi); assay: Test A pre-/postemergence plant response
Method in brief: as §1

[3] = tested on: large crabgrass (Digitaria sanguinalis); assay: Test A pre-/postemergence plant response
Method in brief: as §1

[4] = tested on: morningglory (Ipomoea coccinea); assay: Test A pre-/postemergence plant response
Method in brief: as §1

[5] = tested on: pigweed (Amaranthus retroflexus); assay: Test A pre-/postemergence plant response
Method in brief: as §1

[6] = tested on: velvetleaf (Abutilon theophrasti); assay: Test A pre-/postemergence plant response
Method in brief: as §1

[7] = tested on: wheat (Triticum aestivum); assay: Test A pre-/postemergence plant response
Method in brief: as §1

[8] = tested on: bermudagrass (Cynodon dactylon); assay: Test B pre-/postemergence plant response; details: for Bermudagrass plant response rating: 8 g ai/ha
Method in brief: (§2)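 Visual scoring from 0 (no effect) to 100 (complete control) against untreated controls was done 13 to 15 days after greenhouse treatment. Chemicals were formulated in a surfactant-containing non-phytotoxic solvent and applied to soil preemergence or to 1- to 4-leaf (2-18 cm) plants postemergence.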

[9] = tested on: cocklebur (Xanthium strumarium); assay: Test B pre-/postemergence plant response; details: for Cocklebur plant response rating: 8 g ai/ha
Method in brief: as §2

[10] = tested on: yellow nutsedge (Cyperus esculentus); assay: Test B pre-/postemergence plant response; details: for Nutsedge, Yellow plant response rating: 8 g ai/ha
Method in brief: as §2

[11] = tested on: chickweed (Stellaria media); assay: Test B postemergence plant response; details: for Chickweed plant response rating: 8 g ai/ha, postemergence, 0-100 scale; for Plant response rating, Chickweed: Postemergence
Method in brief: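 Visual injury score from 0 (none) to 100 (complete control) versus controls, taken 13 to 15 days after treatment in the greenhouse; chemicals applied postemergence, as formulated, to plants of 1- to 4-leaf stage (2 to 18 cm tall); dash denotes no test result.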

[12] = Postemergence, 31 g ai/ha, 0 to 100 scale (0 no effect, 100 complete control)
[13] = Postemergence, 125 g ai/ha, 0 to 100 scale, 0 no effect, 100 complete control
[14] = Preemergence, 31 g ai/ha, 0 to 100 scale, 0 is no effect, 100 is complete control
[15] = Preemergence, 125 g ai/ha, 0 to 100 scale (0 no effect, 100 complete control)
[16] = Postemergence, 16 g ai/ha, scale 0 to 100
[17] = Postemergence, 31 g ai/ha, scale 0 to 100, 0 no effect, 100 complete control
[18] = Postemergence, 62 g ai/ha, scale 0 to 100, 0 no effect, 100 complete control
[19] = Preemergence, scale 0 to 100 (0 no effect, 100 complete control)
[20] = Preemergence, 16 g ai/ha, scale 0 to 100 (0 no effect, 100 complete control)
[21] = Preemergence, 31 g ai/ha, 0 to 100 scale, 0 no effect, 100 complete control
[22] = Preemergence, 62 g ai/ha, scale 0 to 100
[23] = Preemergence, 31 g ai/ha, scale 0 to 100 (0 no effect, 100 complete control)
[24] = 31 g ai/ha, scale 0 to 100, 0 no effect, 100 complete control
[25] = 62 g ai/ha, scale 0 to 100, 0 no effect, 100 complete control

Question: With `CCc1cc(-c2ccc(Cl)cc2)nn1-c1c(OC(=O)C(C)(C)C)cnn(C)c1=O` [Compound 40] as the molecule, how does the “Plant response rating, Barnyardgrass” value [1, 12] read?
Answer: 100

Question: What about the “Plant response rating, Barnyardgrass” value [1, 13] of the same molecule?
Answer: 100

Question: And the “Plant response rating, Barnyardgrass” value [1, 14]?
Answer: 100

Question: And the “Plant response rating, Barnyardgrass” value [1, 15]?
Answer: 100

Question: And the “Plant response rating, Corn” value (corn (Zea mays); [12])?
Answer: 90

Question: What about the “Plant response rating, Corn” value (corn (Zea mays); [13]) of the same molecule?
Answer: 100

Question: What about the “Plant response rating, Corn” value (corn (Zea mays); [14]) of the same molecule?
Answer: 30

Question: And the “Plant response rating, Corn” value (corn (Zea mays); [15])?
Answer: 90

Question: And the “Plant response rating, Foxtail, Giant” value [2, 12]?
Answer: 100

Question: What about the “Plant response rating, Foxtail, Giant” value [2, 13] of the same molecule?
Answer: 100

Question: And the “Plant response rating, Foxtail, Giant” value [2, 14]?
Answer: 100

Question: What about the “Plant response rating, Foxtail, Giant” value [2, 15] of the same molecule?
Answer: 100

Question: And the “Plant response rating, Crabgrass, Large” value [3, 12]?
Answer: 70

Question: And the “Plant response rating, Crabgrass, Large” value [3, 13]?
Answer: 100

Question: What about the “Plant response rating, Crabgrass, Large” value [3, 14] of the same molecule?
Answer: 70

Question: And the “Plant response rating, Crabgrass, Large” value [3, 15]?
Answer: 100

Question: And the “Plant response rating, Morningglory” value [4, 12]?
Answer: 0

Question: What about the “Plant response rating, Morningglory” value [4, 13] of the same molecule?
Answer: 0

Question: And the “Plant response rating, Morningglory” value [4, 14]?
Answer: 0

Question: And the “Plant response rating, Morningglory” value [4, 15]?
Answer: 0

Question: What about the “Plant response rating, Pigweed” value [5, 12] of the same molecule?
Answer: 0

Question: What about the “Plant response rating, Pigweed” value [5, 13] of the same molecule?
Answer: 0

Question: And the “Plant response rating, Pigweed” value [5, 14]?
Answer: 0

Question: What about the “Plant response rating, Velvetleaf” value [6, 12] of the same molecule?
Answer: 0

Question: What about the “Plant response rating, Velvetleaf” value [6, 13] of the same molecule?
Answer: 0

Question: What about the “Plant response rating, Velvetleaf” value [6, 14] of the same molecule?
Answer: 0

Question: And the “Plant response rating, Velvetleaf” value [6, 15]?
Answer: 0

Question: And the “Plant response rating, Wheat” value [7, 12]?
Answer: 70

Question: What about the “Plant response rating, Wheat” value [7, 13] of the same molecule?
Answer: 90

Question: And the “Plant response rating, Wheat” value [7, 14]?
Answer: 50

Question: And the “Plant response rating, Wheat” value [7, 15]?
Answer: 90

Question: What about the “Bermudagrass plant response rating” value ([8]; postemergence, 0-100 scale) of the same molecule?
Answer: 0

Question: And the “Plant response rating, Bermudagrass” value [8, 16]?
Answer: 60

Question: What about the “Plant response rating, Bermudagrass” value [8, 17] of the same molecule?
Answer: 65

Question: What about the “Plant response rating, Bermudagrass” value [8, 18] of the same molecule?
Answer: 98

Question: And the “Bermudagrass plant response rating” value [8, 19]?
Answer: 0

Question: And the “Plant response rating, Bermudagrass” value [8, 20]?
Answer: 90

Question: And the “Plant response rating, Bermudagrass” value [8, 21]?
Answer: 100

Question: And the “Plant response rating, Bermudagrass” value [8, 22]?
Answer: 100

Question: What about the “Cocklebur plant response rating” value ([9]; postemergence, 0-100 scale) of the same molecule?
Answer: 0

Question: What about the “Plant response rating, Cocklebur” value [9, 16] of the same molecule?
Answer: 0

Question: And the “Plant response rating, Cocklebur” value [9, 17]?
Answer: 0

Question: What about the “Plant response rating, Cocklebur” value [9, 18] of the same molecule?
Answer: 0

Question: What about the “Plant response rating, Cocklebur” value [9, 20] of the same molecule?
Answer: 0

Question: What about the “Plant response rating, Cocklebur” value [9, 21] of the same molecule?
Answer: 0

Question: What about the “Plant response rating, Cocklebur” value [9, 22] of the same molecule?
Answer: 0

Question: And the “Cocklebur plant response rating” value ([9]; Preemergence, scale 0 to 100)?
Answer: 0

Question: And the “Nutsedge, Yellow plant response rating” value ([10]; postemergence, 0-100 scale)?
Answer: 0

Question: What about the “Plant response rating, Nutsedge, Yellow” value [10, 16] of the same molecule?
Answer: 0

Question: What about the “Plant response rating, Nutsedge, Yellow” value [10, 17] of the same molecule?
Answer: 0

Question: What about the “Plant response rating, Nutsedge, Yellow” value [10, 18] of the same molecule?
Answer: 0

Question: What about the “Plant response rating, Nutsedge, Yellow” value [10, 20] of the same molecule?
Answer: 0

Question: What about the “Plant response rating, Nutsedge, Yellow” value [10, 23] of the same molecule?
Answer: 0

Question: What about the “Plant response rating, Nutsedge, Yellow” value [10, 22] of the same molecule?
Answer: 0

Question: And the “Nutsedge, Yellow plant response rating” value ([10]; Preemergence, scale 0 to 100)?
Answer: 0

Question: What about the “Chickweed plant response rating” value [11] of the same molecule?
Answer: 0

Question: And the “Plant response rating, Chickweed” value ([11]; 16 g ai/ha, scale 0 to 100)?
Answer: 0

Question: And the “Plant response rating, Chickweed” value [11, 24]?
Answer: 0

Question: And the “Plant response rating, Chickweed” value [11, 25]?
Answer: 0

Question: What does the source list for `CCc1cc(-c2ccc(Cl)cc2)nn1-c1c(OC(=O)OC(C)C)cnn(C)c1=O` [Compound 41]?
Answer: Plant response rating, Barnyardgrass [1, 12]: 80; Plant response rating, Barnyardgrass [1, 13]: 100; Plant response rating, Barnyardgrass [1, 14]: 100; Plant response rating, Barnyardgrass [1, 15]: 100; Plant response rating, Corn (corn (Zea mays); [12]): 60; Plant response rating, Corn (corn (Zea mays); [13]): 90; Plant response rating, Corn (corn (Zea mays); [14]): 30; Plant response rating, Corn (corn (Zea mays); [15]): 90; Plant response rating, Foxtail, Giant [2, 12]: 70; Plant response rating, Foxtail, Giant [2, 13]: 90; Plant response rating, Foxtail, Giant [2, 14]: 90; Plant response rating, Foxtail, Giant [2, 15]: 100; Plant response rating, Crabgrass, Large [3, 12]: 20; Plant response rating, Crabgrass, Large [3, 13]: 90; Plant response rating, Crabgrass, Large [3, 14]: 80; Plant response rating, Crabgrass, Large [3, 15]: 100; Plant response rating, Morningglory [4, 12]: 0; Plant response rating, Morningglory [4, 13]: 0; Plant response rating, Morningglory [4, 14]: 0; Plant response rating, Morningglory [4, 15]: 0; Plant response rating, Pigweed [5, 12]: 0; Plant response rating, Pigweed [5, 13]: 0; Plant response rating, Pigweed [5, 14]: 0; Plant response rating, Pigweed [5, 15]: 0; Plant response rating, Velvetleaf [6, 12]: 0; Plant response rating, Velvetleaf [6, 13]: 0; Plant response rating, Velvetleaf [6, 14]: 0; Plant response rating, Velvetleaf [6, 15]: 0; Plant response rating, Wheat [7, 12]: 60; Plant response rating, Wheat [7, 13]: 70; Plant response rating, Wheat [7, 14]: 50; Plant response rating, Wheat [7, 15]: 80; Bermudagrass plant response rating ([8]; postemergence, 0-100 scale): 0; Plant response rating, Bermudagrass [8, 16]: 0; Plant response rating, Bermudagrass [8, 17]: 25; Plant response rating, Bermudagrass [8, 18]: 95; Bermudagrass plant response rating [8, 19]: 0; Plant response rating, Bermudagrass [8, 20]: 0; Plant response rating, Bermudagrass [8, 21]: 0; Plant response rating, Bermudagrass [8, 22]: 0; Cocklebur plant response rating ([9]; postemergence, 0-100 scale): 0; Plant response rating, Cocklebur [9, 16]: 0; Plant response rating, Cocklebur [9, 17]: 0; Plant response rating, Cocklebur [9, 18]: 0; Plant response rating, Cocklebur [9, 20]: 0; Plant response rating, Cocklebur [9, 21]: 0; Plant response rating, Cocklebur [9, 22]: 0; Cocklebur plant response rating ([9]; Preemergence, scale 0 to 100): 0; Nutsedge, Yellow plant response rating ([10]; postemergence, 0-100 scale): 0; Plant response rating, Nutsedge, Yellow [10, 16]: 0; Plant response rating, Nutsedge, Yellow [10, 17]: 0; Plant response rating, Nutsedge, Yellow [10, 18]: 0; Plant response rating, Nutsedge, Yellow [10, 20]: 0; Plant response rating, Nutsedge, Yellow [10, 23]: 0; Plant response rating, Nutsedge, Yellow [10, 22]: 0; Nutsedge, Yellow plant response rating ([10]; Preemergence, scale 0 to 100): 0; Chickweed plant response rating [11]: 0; Plant response rating, Chickweed ([11]; 16 g ai/ha, scale 0 to 100): 0; Plant response rating, Chickweed [11, 24]: 0; Plant response rating, Chickweed [11, 25]: 0
